Assay results reported in PubChem BioAssay (NCI).
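Each compound was tested at five concentrations against cells in 96-well plates for 48 hours. TGI: concentration producing complete growth inhibition.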

Key:
Assay in all cases: DTP human tumour cell line panel, 48 h
786-0 renal = tested on: 786-0 renal
A549 NSCLC = tested on: A549 NSCLC
ACHN renal = tested on: ACHN renal
CCRF-CEM leukemia = tested on: CCRF-CEM leukemia
EKVX NSCLC = tested on: EKVX NSCLC
HCT-15 colon = tested on: HCT-15 colon
MDA-MB-231 breast = tested on: MDA-MB-231 breast
MDA-N = tested on: MDA-N
OVCAR-4 ovarian = tested on: OVCAR-4 ovarian
RPMI-8226 leukemia = tested on: RPMI-8226 leukemia
RXF 393 renal = tested on: RXF 393 renal
SF-295 CNS = tested on: SF-295 CNS
SK-MEL-2 melanoma = tested on: SK-MEL-2 melanoma
SK-MEL-28 melanoma = tested on: SK-MEL-28 melanoma
SK-MEL-5 melanoma = tested on: SK-MEL-5 melanoma
SN12C renal = tested on: SN12C renal
SR leukemia = tested on: SR leukemia
UO-31 renal = tested on: UO-31 renal

Structure (SMILES) | TGI (786-0 renal) [µM] | TGI (A549 NSCLC) [µM] | TGI (ACHN renal) [µM] | TGI (CCRF-CEM leukemia) [µM] | TGI (EKVX NSCLC) [µM] | TGI (HCT-15 colon) [µM] | TGI (MDA-MB-231 breast) [µM] | TGI (MDA-N) [µM] | TGI (OVCAR-4 ovarian) [µM] | TGI (RPMI-8226 leukemia) [µM] | TGI (RXF 393 renal) [µM] | TGI (SF-295 CNS) [µM] | TGI (SK-MEL-2 melanoma) [µM] | TGI (SK-MEL-28 melanoma) [µM] | TGI (SK-MEL-5 melanoma) [µM] | TGI (SN12C renal) [µM] | TGI (SR leukemia) [µM] | TGI (UO-31 renal) [µM]
CCOC(=O)/C=C1\C[C@H](NC(=O)OCc2ccccc2)C(=O)N1CC(=O)OCC | > 100 | > 100 | > 100 | > 100 | > 100 | > 100 | > 100 | > 100 | > 100 | > 100 | > 100 | > 100 | > 100 | > 100 | > 100 | > 100 | > 100 | > 100
O=Cc1ccc2[nH]c(=O)oc2c1 | > 100 | – | > 100 | > 100 | > 100 | > 100 | > 100 | > 100 | – | > 100 | > 100 | > 100 | > 100 | > 100 | – | > 100 | > 100 | 82.7
Cc1c(C=C(C#N)C#N)c(=O)n(C)c(=O)n1C | > 100 | > 100 | > 100 | 94.8 | > 100 | > 100 | > 100 | > 100 | > 100 | > 100 | > 100 | > 100 | > 100 | > 100 | > 100 | > 100 | > 100 | > 100
CCCCn1c2c(n(CCCC)c1=[Se])-c1c(n(CCCC)c(=[Se])n1CCCC)S[Se][Se]S2 | > 72.6 | > 61.3 | 30.9 | 55.6 | > 100 | 27.9 | 32.2 | > 100 | 25.8 | > 70 | > 71.4 | 30.9 | 45.9 | > 100 | 34.6 | 65 | > 100 | > 44.2
COc1cc(C2SC(N)=Nc3c2c(C)nn3C(=O)c2ccc(Cl)cc2)ccc1O (stereo not given) | > 10 | > 10 | > 10 | > 10 | > 10 | > 10 | > 10 | 0.406 | > 10 | > 10 | > 10 | > 10 | > 10 | > 10 | > 10 | > 10 | > 10 | –
Cc1cc(C)nc(NS(=O)(=O)c2ccc(NC(=O)c3ccc4nc5ccccc5c(Nc5ccc(S(=O)(=O)Nc6nc(C)cc(C)n6)cc5)c4c3)cc2)n1 | > 100 | > 100 | > 100 | > 100 | > 100 | > 100 | 53.9 | > 100 | > 100 | > 100 | > 100 | > 100 | > 100 | > 100 | > 100 | > 100 | > 100 | > 100
COc1ccc(-c2cc(-c3ccccc3)nc(N)n2)c(O)c1 | > 100 | > 100 | > 100 | > 100 | > 100 | > 100 | > 100 | > 100 | > 100 | 5.76 | > 100 | > 100 | > 100 | > 100 | > 100 | > 100 | > 26.2 | > 23.3
CC1(C)N=C(N)N=C(N)N1CCCCc1ccccc1 | > 100 | > 100 | > 100 | > 100 | > 100 | > 100 | > 100 | > 100 | > 100 | > 93.9 | > 100 | > 62.6 | > 100 | > 100 | 12.5 | > 54.4 | > 100 | > 100
CCN(CC)c1ccc2cc(-c3csc(-c4ccc(N(C)C)cc4)n3)c(=O)oc2c1 | > 100 | > 100 | > 100 | > 100 | > 100 | > 100 | > 100 | > 100 | > 100 | > 100 | > 100 | > 100 | > 100 | > 100 | > 100 | > 100 | > 100 | > 100
COc1cc2c3c4c1OCc1c5c(cc(c1-4)CC3[N+](C)(C)CC2)OCO5 (stereo not given) | > 63.5 | > 100 | > 100 | > 100 | > 100 | > 100 | > 100 | > 100 | > 100 | > 100 | > 100 | > 43 | > 100 | > 100 | > 100 | 39.4 | > 100 | > 100
COc1ccc(NC(C)=O)cc1N1C(=O)/C(=C\c2cccc(Oc3ccccc3)c2)SC1c1ccccc1 (stereo not given) | > 100 | > 100 | > 100 | 67.2 | > 100 | > 100 | > 100 | 81.9 | > 100 | 61.9 | > 100 | > 100 | > 100 | > 100 | > 100 | 64.6 | 29.4 | > 100
NNC(=O)CSc1nnc(CCCCCCCCc2nnc(SCC(=O)NN)o2)o1 | > 100 | > 100 | > 100 | > 100 | > 100 | > 100 | > 100 | > 100 | > 100 | > 100 | > 100 | > 100 | > 100 | > 100 | > 100 | > 100 | > 100 | > 100
CN1C(=O)C(O)C[C@@H]1c1ccc(F)cc1 (stereo not given in full) | > 100 | > 100 | > 100 | > 100 | > 100 | > 100 | > 100 | > 100 | > 100 | > 100 | > 100 | > 100 | > 100 | > 100 | > 100 | > 100 | > 100 | > 100
